{
  "source": "paper PMC11678869",
  "about": "“Functional Role of Odorant-Binding Proteins in Response to Sex Pheromone Component Z8-14:Ac in Grapholita molesta (Busck)” (Insects, 2024)",
  "key": {"[1]": {"molecular_target": "GmolPBP2 mutant F12A (Grapholita molesta, UniProt A0A059VC28, F37A)", "sequence (A0A059VC28 entry or part of it F37A)": "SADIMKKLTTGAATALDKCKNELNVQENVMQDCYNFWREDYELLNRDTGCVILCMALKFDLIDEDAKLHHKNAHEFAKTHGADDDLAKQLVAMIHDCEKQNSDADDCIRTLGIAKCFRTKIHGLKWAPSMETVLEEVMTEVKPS", "experiment": "Fluorescence competitive binding assay, GmolPBP2 mutant", "protocol": "(§1) The binding affinities of three rGmolPBPs and two rGmolGOBPs for Z8-14:Ac were determined using an F-2700 fluorescence spectrophotometer (Hitachi, Tokyo, Japan). First, we measured the dissociation constants (Kd) of the rGmolPBPs (or rGmolGOBPs) binding to 1−NPN. Each protein was diluted to 2 μM with 20 mM Tris-HCl buffer (pH 7.4); then, 2 mL of the protein solution was transferred to a quartz cuvette and titrated with 1 mM 1−NPN to a final concentration of 1–18 μM. As the doses of 1−NPN were increased, the increasing amplitude of the fluorescence intensity decreased, and finally, the binding of the protein to 1−NPN reached saturation. The Kd values were calculated using the nonlinear regression method and the Scatchard equation. Second, we measured the inhibitory constant (Ki) of Z8-14:Ac’s competitive binding with each rGmolPBP (or rGmolGOBP) from the protein/1−NPN complex. The initial fluorescence intensity values were measured after a 2 min reaction in 2 mL solution of 20 mM Tris-HCl (pH 7.4) containing 2 µM rGmolPBP (or rGmolGOBP) protein and 2 µM 1−NPN. Then, the solution was titrated with aliquots of 1 mM Z8-14:Ac to obtain final concentrations in the range of 1–14 µM, and the fluorescence intensity value of each reaction was recorded. The Ki values were calculated using the following equation: Ki = [IC50]/(1 + [1 − NPN]/Kd) where IC50 is the concentration of Z8-14:Ac when half of the initial fluorescence intensity value of the rGmolPBP (or GmolGOBP)/1−NPN complex is replaced, [1 − NPN] represents the concentration of free 1−NPN, and Kd is the dissociation constant of the rGmolPBP (or GmolGOBP)/1−NPN complex.\n(§2) Five amino acids—Phe12, Leu68, Ile94, Arg109, and Ile113—were identified as having lower binding free energies for GmolPBP2 interaction with Z8-14:Ac. To assess their role in binding, these residues were individually mutated to alanine using site-directed mutagenesis. Primers for mutagenesis were designed following the protocols recommended by the Fast Mutagenesis System (TransGen Biotech, Beijing, China) (Table S1). These mutations were introduced into the pET-28a(+)–GmolPBP2 plasmid using a Fast Mutagenesis System kit ([…]) and site-directed mutagenesis primers generating the mutants F12A, L68A, I94A, R109A, and I113A, respectively. Each plasmid was verified by DNA sequencing to confirm the presence of the desired mutation. Expression and purification of the mutated proteins followed the same protocols used for the wild-type GmolPBP2. The binding affinities of the five mutants for Z8-14:Ac were determined via fluorescence competitive binding assays. An increase in Ki values for the mutants relative to the wild-type GmolPBP2 would indicate that the corresponding amino acid residues may be crucial for binding to Z8-14:Ac."}, "[2]": {"molecular_target": "GmolPBP2 mutant I94A (Grapholita molesta, UniProt A0A059VC28, I119A)", "sequence (A0A059VC28 entry or part of it I119A)": "as the sequence (A0A059VC28 entry or part of it F37A) above, with A12F, I94A counted along it", "experiment": "Fluorescence competitive binding assay, GmolPBP2 mutant", "protocol": "as §1, §2"}, "[3]": {"system": "OFM males", "experiment": "Field trapping with delta traps, peach orchard", "type": "in vivo, Grapholita molesta", "settings": "for Inhibition Rate of OFM Males: vs 100:4:0", "protocol": "To determine the inhibitory effects on OFM male adults and the impact on the trapping effects of PFM male adults, varying amounts of Z8-14:Ac (0, 5, 10, 25, 50, 75, 100, 125, 150 μg) or Z10-14:Ac (0, 25, 50, 100, 150, 250, 350, 450, and 550 μg) were added to rubber septa loaded with a constant dosage of the main pheromone (500 μg of Z8-12:Ac and 20 μg of E8-12:Ac) of the PFM. Trapping experiments of Z8-14:Ac were carried out in peach and pear orchards in Yan’an and Xinjiang (China), respectively. Trapping tests of Z10-14:Ac were performed in pear orchards in Xinjiang (China). Each orchard had nine plots, with three plots in one field. Each plot consisted of a linear arrangement of traps loaded with a constant dosage of the main pheromones and different percentages of the secondary pheromone Z8-14:Ac or Z10-14:Ac of the PFM. Plots in the same field were placed 30 m apart, and fields were ≥1 km apart. The traps were hung 1.4 m from the ground on a suspension bracket between two rows of peach or pear trees from 10 June to 25 July 2021 in Xinjiang and from 15 June to 30 July 2021 in Yan’an. The positions of the traps within the plot were randomly arranged. Every 5 days, counts were taken, and the traps were rotated to the adjacent position to avoid any potential position effects. The septa loaded with sex pheromone components were replaced with new ones after every 15 days of suspension. The data were analyzed using a one-way ANOVA, and the differences in the average trapping of OFM and PFM males using sex attractants containing different amounts of Z8-14:Ac or Z10-14:Ac were further analyzed using Tukey’s HSD test, both of which were performed using SPSS 23.0."}, "[4]": {"settings": "peach orchard, Z8-12:Ac/E8-12:Ac/Z8-14:Ac 500/20/5 μg (100:4:1)"}, "[5]": {"settings": "peach orchard, Z8-12:Ac/E8-12:Ac/Z8-14:Ac 500/20/10 μg (100:4:2)"}, "[6]": {"settings": "peach orchard, Z8-12:Ac/E8-12:Ac/Z8-14:Ac 500/20/25 μg (100:4:5)"}, "[7]": {"settings": "peach orchard, Z8-12:Ac/E8-12:Ac/Z8-14:Ac 500/20/50 μg (100:4:10)"}, "[8]": {"settings": "peach orchard, Z8-12:Ac/E8-12:Ac/Z8-14:Ac 500/20/75 μg (100:4:15)"}, "[9]": {"settings": "peach orchard, Z8-12:Ac/E8-12:Ac/Z8-14:Ac 500/20/100 μg (100:4:20)"}, "[10]": {"settings": "peach orchard, Z8-12:Ac/E8-12:Ac/Z8-14:Ac 500/20/125 μg (100:4:25)"}, "[11]": {"settings": "peach orchard, Z8-12:Ac/E8-12:Ac/Z8-14:Ac 500/20/150 μg (100:4:30)"}},
  "data": [
    {"smiles": "CCCCC/C=C\\CCCCCCCOC(C)=O", "note": "[Z8-14:Ac, (Z)-8-tetradecenyl acetate]", "values": [
      {"measurement": "IC50", "setting": "[1]", "result": "> 14000", "unit": "nM"},
      {"measurement": "Ki", "setting": "[1]", "result": "> 14000", "unit": "nM"},
      {"measurement": "binding affinity relative to wild-type GmolPBP2", "setting": "[1]; mutant F12A", "result": "lost its affinity"},
      {"measurement": "IC50", "setting": "[2]", "result": "1082 ± 8", "unit": "nM"},
      {"measurement": "Ki", "setting": "[2]", "result": "564 ± 4", "unit": "nM"},
      {"measurement": "binding affinity relative to wild-type GmolPBP2", "setting": "[2]; mutant I94A", "result": "binding affinities comparable to the wild-type"},
      {"measurement": "Total OFM Males/Trap", "setting": "[3]; [4]", "result": "46.08±3.25", "unit": "b Males/Trap"},
      {"measurement": "Inhibition Rate of OFM Males", "setting": "[3]; [4]", "result": 58.81, "unit": "%"},
      {"measurement": "Total OFM Males/Trap", "setting": "[3]; [5]", "result": "40.89±2.35", "unit": "b Males/Trap"},
      {"measurement": "Inhibition Rate of OFM Males", "setting": "[3]; [5]", "result": 63.45, "unit": "%"},
      {"measurement": "Total OFM Males/Trap", "setting": "[3]; [6]", "result": "14.82±1.47", "unit": "c Males/Trap"},
      {"measurement": "Inhibition Rate of OFM Males", "setting": "[3]; [6]", "result": 86.75, "unit": "%"},
      {"measurement": "Total OFM Males/Trap", "setting": "[3]; [7]", "result": "9.04±1.08", "unit": "c Males/Trap"},
      {"measurement": "Inhibition Rate of OFM Males", "setting": "[3]; [7]", "result": 91.92, "unit": "%"},
      {"measurement": "Total OFM Males/Trap", "setting": "[3]; [8]", "result": "9.55±1.09", "unit": "c Males/Trap"},
      {"measurement": "Inhibition Rate of OFM Males", "setting": "[3]; [8]", "result": 91.46, "unit": "%"},
      {"measurement": "Total OFM Males/Trap", "setting": "[3]; [9]", "result": "9.67±1.52", "unit": "c Males/Trap"},
      {"measurement": "Inhibition Rate of OFM Males", "setting": "[3]; [9]", "result": 91.36, "unit": "%"},
      {"measurement": "Total OFM Males/Trap", "setting": "[3]; [10]", "result": "6.86±0.24", "unit": "c Males/Trap"},
      {"measurement": "Inhibition Rate of OFM Males", "setting": "[3]; [10]", "result": 93.87, "unit": "%"},
      {"measurement": "Total OFM Males/Trap", "setting": "[3]; [11]", "result": "7.96±1.19", "unit": "c Males/Trap"},
      {"measurement": "Inhibition Rate of OFM Males", "setting": "[3]; [11]", "result": 92.88, "unit": "%"},
      {"measurement": "reduction of the number of OFM males caught", "setting": "[3]; peach orchard, adding 5–30% of Z8-14:Ac to Z8-12:Ac and E8-12:Ac", "result": "more than 86%"},
      {"measurement": "reduction of the capture of OFM males", "setting": "[3]; peach orchards, adding 1–2% of Z8-14:Ac to Z8-12:Ac and E8-12:Ac (100:4)", "result": "58.81–63.45%"}
    ]}
  ]
}
